Measurements taken from US10292963B2, “Suppression and treatment of viruses” (priority 2013, dated 2019).

Assay: Additional benefits observed in people taking betaine
Type: in vivo, human
From the text: While the main benefit of a person or pet taking vitamin C and betaine in combination is the prevention/suppression of tumors, as mentioned before, additional benefits can be obtained depending upon the levels taken. Betaine is known to improve cardiovascular health, and can benefit people with fatty deposits in the liver. […] After only a few weeks of taking the betaine, cholesterol levels are reduced and the ability to lose weight is improved.

[1] = after only a few weeks of taking the betaine

SMILES: C[N+](C)(C)CC(=O)[O-] [betaine, trimethylglycine]
- tendency to be light headed on getting up after prolonged squatting or kneeling (after a few doses at about one and a half to about three grams per day, especially older people): considerably lessened
- ability to lose weight [1]: improved
- cholesterol levels [1]: reduced
